Source: PubChem BioAssay (NCI)
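Five concentrations, 48 hours, 96-well plates. The concentration for full growth arrest is given as TGI.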

Key:
Test in all cases: DTP human tumour cell line panel, 48 h
[1] = test system: T-47D breast
[2] = test system: RXF 393 renal
[3] = test system: A498 renal
[4] = test system: M14 melanoma
[5] = test system: NCI-H522 lung
[6] = test system: SK-MEL-5 melanoma
[7] = test system: SR leukemia
[8] = test system: PC-3 prostate
[9] = test system: U251 CNS
[10] = test system: SNB-19 CNS
[11] = test system: KM12 colon
[12] = test system: SK-MEL-28 melanoma
[13] = test system: HL-60(TB) leukemia
[14] = test system: MDA-MB-231 breast
[15] = test system: SF-539 CNS
[16] = test system: EKVX NSCLC
[17] = test system: MDA-N
[18] = test system: HT29 colon
[19] = test system: A549 NSCLC
[20] = test system: ACHN renal
[21] = test system: COLO 205 colon
[22] = test system: HCT-15 colon
[23] = test system: HOP-92 NSCLC
[24] = test system: OVCAR-4 ovarian
[25] = test system: SW-620 colon
[26] = test system: K-562 leukemia
[27] = test system: CCRF-CEM leukemia
[28] = test system: BT-549 breast
[29] = test system: UO-31 renal
[30] = test system: OVCAR-3 ovarian
[31] = test system: NCI-H226 lung
[32] = test system: MALME-3M melanoma
[33] = test system: HS 578T breast
[34] = test system: RPMI-8226 leukemia
[35] = test system: LOX IMVI melanoma
[36] = test system: SK-MEL-2 melanoma
[37] = test system: DU-145 prostate
[38] = test system: IGROV1 ovarian
[39] = test system: SF-295 CNS
[40] = test system: NCI/ADR-RES ovarian
[41] = test system: SK-OV-3 ovarian
[42] = test system: NCI-H460 lung
[43] = test system: HCC-2998 colon
[44] = test system: NCI-H23 lung
[45] = test system: MCF7 breast
[46] = test system: OVCAR-5 ovarian
[47] = test system: OVCAR-8 ovarian
[48] = test system: SNB-75 CNS
[49] = test system: UACC-62 melanoma
[50] = test system: 786-0 renal
[51] = test system: MDA-MB-435
[52] = test system: TK-10 renal
[53] = test system: HCT-116 colon
[54] = test system: UACC-257 melanoma
[55] = test system: MOLT-4 leukemia
[56] = test system: CAKI-1 renal
[57] = test system: M19-MEL melanoma
[58] = test system: HOP-62 NSCLC
[59] = test system: LXFL 529 NSCLC
[60] = test system: KM20L2 colon
[61] = test system: DMS 273 small cell lung
[62] = test system: SN12C renal
[63] = test system: DLD-1 colon
[64] = test system: SF-268 CNS
[65] = test system: DMS 114 small cell lung
[66] = test system: XF 498 CNS

Measured: TGI

c1sc(NC2=NCCO2)c2c1CCCC2
not listed: [57] | [58] | [59] | [60] | [61] | [62] | [63] | [64] | [65] | [66]
> 100 µM: all other assays above

COc1ccc(/C(=C/n2ccnc2)C(=O)c2ccc(OC)c(OC)c2)cc1
not listed: [1] | [2] | [8] | [14] | [17] | [18] | [28] | [33] | [37] | [38] | [39] | [40] | [41] | [45] | [51]
> 100 µM: all other assays above
